Reference: patent publication US6083957A, “Heterocyclic compounds and their preparation and use” (Novo Nordisk A/S, priority 1996, dated 2000)

How the values were obtained:
[1] = molecular target: T1, subtype of muscarinic receptors (M1-site) (Rattus norvegicus, UniProt P08482); experiment: inhibition of 3H-PRZ (pirenzepine, [N-methyl-3H]) binding to rat cerebral cortex membranes; parameters: species or system male Wistar rats; conditions: 1.0 nM 3H-Pirenzepine, pH 7.4, 60 min, 20° C, read-out: IC50, 3H-Pz
T1 construct: from tissue; host or cells: rat cerebral cortex membranes (male Wistar rats)
T1 sequence (P08482 1-460): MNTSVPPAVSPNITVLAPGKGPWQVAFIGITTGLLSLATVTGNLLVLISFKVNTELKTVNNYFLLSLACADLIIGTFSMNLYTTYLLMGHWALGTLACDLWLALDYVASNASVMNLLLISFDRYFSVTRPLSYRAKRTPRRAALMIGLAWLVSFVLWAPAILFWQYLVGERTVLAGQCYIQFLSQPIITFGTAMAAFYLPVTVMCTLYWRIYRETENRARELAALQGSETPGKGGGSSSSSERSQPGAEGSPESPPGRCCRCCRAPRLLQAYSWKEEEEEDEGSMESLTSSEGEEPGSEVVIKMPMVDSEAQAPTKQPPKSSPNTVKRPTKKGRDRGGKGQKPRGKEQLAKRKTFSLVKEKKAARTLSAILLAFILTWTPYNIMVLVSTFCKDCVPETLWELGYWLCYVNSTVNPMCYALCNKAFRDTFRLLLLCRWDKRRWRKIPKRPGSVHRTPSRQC
Excerpt: Furthermore the pharmacological properties of the compounds of the invention can also be illustrated by determining their capability to inhibit ^3 H-PRZ (pirenzepine, [N-methyl-^3 H]) binding to rat cerebral cortex membranes.
Pirenzepine binds selectively to subtype of muscarinic receptors. Historically the type is named the M1 -site, whereas pirenzepine sensitive site would be more appropriate. Although selective for M1 -sites pirenzepine also interact with M2 -sites.
All preparations are performed at 0-4° C. unless otherwise indicated. Fresh cortex (0.1-1 g) from male Wistar rats (150-200 g) is homogenized for 5-10 s. in 10 ml 20 mM Hepes pH: 7.4, with an Ultra-Turraxhomogenizer. The homogenizer is rinzed with 2×10 ml of buffer and the combined suspension centrifuged for 15 min at 40,000 xg. The pellet is washed three times with buffer. In each step the pellet is homogenized as before in 3×10 ml of buffer and centrifuged for 10 min at 40,000 xg.
The final pellet is homogenized in 20 mM Hepes pH: 7.4 (100 ml per g of original tissue) and used for binding assay. Aliquots of 0.5 ml is added 20 μl of test solution and 25 μl of ^3 H-Pirenzepine·(1.0 nM, final conc.), mixed and incubated for 60 min at 20° C. Non-specific binding is determined in triplicate using atropine (1 μg/ml, final conc.) as the test substance. After incubation samples are added 5 ml of ice-cold buffer and poured directly onto Whatman GF/C glass fiber filters inder suction and immediately washed 2 times with 5 ml of ice-cold buffer. The amount of radioactivity on the filters are determined by conventional liquid scintillation counting. Specific binding is total binding minus non-specific binding.
Test substances are dissolved in 10 ml water, at a concentration of 0.22 mg/ml. 25-75% inhibition of specific binding must be obtained before calculation of IC50.
The test value will be given as IC50 (the concentration, nM) of the test substance which inhibits the specific binding of ^3 H-PRZ by 50%.
(§1) IC50 =(applied test substance concentration) [formula] where Co is specific binding in control assays and Cx is the specific binding in the test assay. (The calculations assume normal mass-action kinetics).

[2] = molecular target: muscarinic acetylcholine receptors; experiment: inhibition of specific binding of 3H-Oxotremorine-M (3H-Oxo), rat cortex homogenate; parameters: species or system male Wistar rats; conditions: 1.0 nM 3H-Oxotremorine, pH 7.4, 30 min, 25° C
Excerpt: The pharmacological properties of the compounds of the invention can be illustrated by determining their capability to inhibit the specific binding of ^3 H-Oxotremorine-M (^3 H-Oxo). Birdsdall N. J. M., Hulme E. C., and Burgen A. S. V. (1980). "The Character of Muscarinic Receptors in Different Regions of the Rat Brain". Proc. Roy. Soc. London (Series B) 207,1.
The inhibitory effects of compounds on ^3 H-Oxo binding reflects the affinity for muscarinic acetylcholine receptors.
All preparations are performed at 0-4° C. unless otherwise indicated. Fresh cortex (0.1-1 g) from male Wistar rats (150-250 g) is homogenized for 5-10 s in 10 ml 20 mM Hepes pH: 7.4, with an Ultra-Turrax homogenizer. The homogenizer is rinsed with 10 ml of buffer and the combined suspension centrifuged for 15 min. at 40,000×g. The pellet is washed three times with buffer. In each step the pellet is homogenized as before in 2×10 ml of buffer and centrifuged for 10 min. at 40,000×g.
The final pellet is homogenized in 20 mM Hepes pH: 7.4 (100 ml per g of original tissue) and used for binding assay. Aliquots of 0.5 ml is added 25 ul of test solution and 25 ul of ^3 H-Oxotremorine (1.0 nM, final concentration) mixed and incubated for 30 min. at 25° C. Non-specific binding is determined in triplicate using arecoline (1 ug/ml, final concentration) as the test substance. After incubation samples are added 5 ml of ice-cold buffer and poured directly onto Whatman GF/C glass fiber filters under suction and immediately washed 2 times with 5 ml of ice-cold buffer. The amount of radioactivity on the filters are determined by conventional liquid scintillation counting. Specific binding is total binding minus non specific binding.
Test substances are dissolved in 10 ml water (if necessary heated on a steam-bath for less than 5 min.) at a concentration of 2.2 mg/ml. 25-75% inhibition of specific binding must be obtained before calculation of IC50.
The test value will be given as IC50 (the concentration (nM) of the test substance which inhibits the specific binding of ^3 H-Oxo by 50%).
as §1

Compound	IC50 [1]	IC50 [2]
CCSc1nsnc1C1=CCC[N+](C)(CC)C1 (centres unmarked) [Compound 8, 3-(3-Ethylthio-1,2,5-thiadiazol-4-yl)-1,2,5,6-tetrahydro-1-ethyl-1-methylpyridinium iodide]	28 nM	3.5 nM
CCOc1nsnc1C1=CCC[N+](C)(CC)C1 (centres unmarked) [Compound 10, 3-(3-Ethoxy-1,2,5-thiadiazol-4-yl)-1,2,5,6-tetrahydro-1-ethyl-1-methyl-pyridinium iodide]	56 nM	15.5 nM
CCSc1nsnc1C1=CCC[N+](C)(C)C1 [Compound 9, 3-(3-Ethylthio-1,2,5-thiadiazol-4-yl)-1,2,5,6-tetrahydro-1,1-dimethylpyridinium iodide]	26 nM	1.6 nM
CCOc1nsnc1C1=CCC[N+](C)(C)C1 [Compound 3, 3-(3-Ethoxy-1,2,5-thiadiazol-4-yl)-1,2,5,6-tetrahydro-1,1-dimethylpyridinium iodide]	4.5 nM	0.59 nM
CCCCSc1nsnc1C1C[N+]2(C)CCC1CC2 (centres unmarked) [Compound 4, 3-(3-Butylthio-1,2,5-thiadiazol-4-yl)-1-methyl-1-azabicyclo[2.2.2]octane iodide]	4.9 nM	1.5 nM
CCCCCCOc1nsnc1C1=CCC[N+](C)(C)C1 [Compound 2, 3-(3-Hexyloxy-1,2,5-thiadiazol-4-yl)-1,2,5,6-tetrahydro-1,1-dimethylpyridinium iodide]	9 nM	3.3 nM

Next, values leading:

IC50 [1]	IC50 [2]	Compound
6 nM	3.4 nM	CCCCCCSc1nsnc1C1=CCC[N+](C)(C)C1 [Compound 1, 3-(3-Hexylthio-1,2,5-thiadiazol-4-yl)-1,2,5,6-tetrahydro-1,1-dimethylpyridinium iodide]
–	35 nM	C[N+]12CCCC(C1)C(c1nsnc1OCC#Cc1ccsc1)C2 (single isomer, unassigned) [Compound 11, Exo(+) 6-(3-(3-(3-Thienyl)-2-propyn-1-yloxy)-1,2,5-thiadiazol-4-yl)-1-azabicyclo[3.2.1]-octane iodide]
–	63 nM	C[N+]12CCCC(C1)C(c1nsnc1OCC#Cc1cccs1)C2 (single isomer, unassigned) [Compound 12, Exo(+) 6-(3-(3-(2-Thienyl)-2-propyn-1-yloxy)-1,2,5-thiadiazol-4-yl)-1-azabicyclo[3.2.1]-octane iodide]
2.3 nM	4.8 nM	CCCCCSc1nsnc1[C@H]1C[N@@+]2(C)CCC[C@@H]1C2 (relative stereo) [Compound 6, Endo 6-(3-Pentylthio-1,2,5-thiadiazol-4-yl)-1-methyl-1-azabicyclo[3.2.1]octane iodide]
135 nM	4.9 nM	CCCCCSc1nsnc1[C@@H]1C[N@@+]2(C)CCC[C@@H]1C2 (relative stereo) [Compound 7, Exo 6-(3-Pentylthio-1,2,5-thiadiazol-4-yl)-1-methyl-1-azabicyclo[3.2.1]octane iodide]
–	13 nM	C[N+]12CCCC(C1)C(c1nsnc1SCC#Cc1ccccc1)C2 (single isomer, unassigned) [Compound 13, Exo(+) 6-(3-(3-(3-Phenyl)-2-propyn-1-ylthio)-1,2,5-thiadiazol-4-yl)-1-azabicyclo[3.2.1]-octane iodide]
8.8 nM	3.3 nM	CCCCSc1nsnc1[C@H]1C[N@@+]2(C)CCC[C@@H]1C2 (relative stereo) [Compound 5, Endo 6-(3-Butylthio-1,2,5-thiadiazol-4-yl)-1-methyl-1-azabicyclo[3.2.1]octane iodide]
